Results: ChEMBL document CHEMBL1201862, “PubChem BioAssay data set” (2004)
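Results reflect a 48-hour exposure of cells in 96-well plates to compound at five concentrations. Abbreviation: GI50, concentration required for 50% inhibition of growth.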 Calls of active or inactive are those of the source. Rule as the data show it: active = GI50 up to about 1.1 µM and inactive = higher.

How the values were obtained:
Assay in all cases: NCI tumour cell line growth inhibition, 48 h
DMS-114 = system: DMS-114
SF-268 = system: SF-268
HCT-116 = system: HCT-116
SK-OV-3 = system: SK-OV-3
A549 = system: A549
MOLT-4 = system: MOLT-4
SK-MEL-2 = system: SK-MEL-2
HCC 2998 = system: HCC 2998
NCI-H226 = system: NCI-H226
SF-295 = system: SF-295
SN12C = system: SN12C
K562 = system: K562
NCI-H460 = system: NCI-H460
Malme-3M = system: Malme-3M
RXF 393 = system: RXF 393
M19-MEL = system: M19-MEL
TK-10 = system: TK-10
DU-145 = system: DU-145
Hs-578T = system: Hs-578T
MDA-N = system: MDA-N

Row | Compound | GI50 (DMS-114) | GI50 (SF-268) | GI50 (HCT-116) | GI50 (SK-OV-3) | GI50 (A549) | GI50 (MOLT-4) | GI50 (SK-MEL-2) | GI50 (HCC 2998) | GI50 (NCI-H226) | GI50 (SF-295) | GI50 (SN12C) | GI50 (K562) | GI50 (NCI-H460) | GI50 (Malme-3M) | GI50 (RXF 393) | GI50 (M19-MEL) | GI50 (TK-10) | GI50 (DU-145) | GI50 (Hs-578T) | GI50 (MDA-N)
1 | N#CC1(Cc2ccccc2[N+](=O)[O-])c2ccccc2C2C(N1C(=O)c1ccccc1)C2(Cl)Cl (stereo not drawn) | > 100 µM (inactive) | > 100 µM (inactive) | > 100 µM (inactive) | > 100 µM (inactive) | > 100 µM (inactive) | > 100 µM (inactive) | > 100 µM (inactive) | 3.76 µM (inactive) | > 100 µM (inactive) | > 100 µM (inactive) | > 100 µM (inactive) | > 100 µM (inactive) | > 100 µM (inactive) | > 100 µM (inactive) | > 100 µM (inactive) | > 100 µM (inactive) | > 100 µM (inactive) | – | – | –
2 | CC1=CC2CC(C)=C(CC[C@]3(C)CC[C@H]([C@@H](C)C(=O)O)OO3)C(C)(C)C2CC1 (stereo partly drawn) | 0.376 µM (active) | 1.62 µM (inactive) | 0.457 µM (active) | 2.2 µM (inactive) | 0.45 µM (active) | – | 1.6 µM (inactive) | 0.292 µM (active) | 1.85 µM (inactive) | 1.36 µM (inactive) | 0.391 µM (active) | 0.208 µM (active) | 0.2 µM (active) | 0.771 µM (active) | 0.372 µM (active) | 1.63 µM (inactive) | 1.76 µM (inactive) | – | – | –
3 | CCc1ccccc1NC(=O)/C(=N/O)C(C)=O | > 100 µM (inactive) | > 100 µM (inactive) | > 100 µM (inactive) | > 100 µM (inactive) | > 100 µM (inactive) | > 100 µM (inactive) | > 100 µM (inactive) | > 100 µM (inactive) | 62.1 µM (inactive) | > 100 µM (inactive) | 96.8 µM (inactive) | > 100 µM (inactive) | > 100 µM (inactive) | > 100 µM (inactive) | > 100 µM (inactive) | > 100 µM (inactive) | > 100 µM (inactive) | – | – | –
4 | O=S1(=O)CCC2=CC(C(F)(F)F)=CC(C(F)(F)F)=CN21 | 1.37 µM (inactive) | 1.72 µM (inactive) | 0.245 µM (active) | 3.86 µM (inactive) | 2.96 µM (inactive) | 0.243 µM (active) | 1.82 µM (inactive) | 2.07 µM (inactive) | 2.08 µM (inactive) | 2.12 µM (inactive) | 1.55 µM (inactive) | 0.39 µM (active) | 2.59 µM (inactive) | 0.733 µM (active) | 1.47 µM (inactive) | 1.41 µM (inactive) | 0.697 µM (active) | 0.542 µM (active) | 3.1 µM (inactive) | 0.792 µM (active)
5 | COc1cc(CCCC(O)COc2cccc3c2C2(O)CCCCCC32)cc(OC)c1 (stereo not drawn) | 11.4 µM (inactive) | 17.9 µM (inactive) | 17.7 µM (inactive) | 23.1 µM (inactive) | 16.1 µM (inactive) | 17.7 µM (inactive) | 20.7 µM (inactive) | 4.97 µM (inactive) | 16.2 µM (inactive) | 16.5 µM (inactive) | 17.2 µM (inactive) | 11.6 µM (inactive) | 17.6 µM (inactive) | 16 µM (inactive) | 24.8 µM (inactive) | 17 µM (inactive) | 14.1 µM (inactive) | – | – | –
6 | Nc1c2ccccc2nc2c(C(=O)Nc3ccc(S(N)(=O)=O)cc3)cccc12 | > 100 µM (inactive) | 42.3 µM (inactive) | 67.5 µM (inactive) | > 100 µM (inactive) | > 100 µM (inactive) | 11.1 µM (inactive) | > 100 µM (inactive) | > 100 µM (inactive) | 84.3 µM (inactive) | > 100 µM (inactive) | > 100 µM (inactive) | 28.6 µM (inactive) | > 100 µM (inactive) | 74 µM (inactive) | > 100 µM (inactive) | 60 µM (inactive) | > 100 µM (inactive) | – | – | –
7 | CC1=C(C(=O)Nc2ccccc2C)C(c2ccccc2)C(C(=O)Nc2ccccc2C)=C(C)N1 | 30.4 µM (inactive) | > 100 µM (inactive) | 24.3 µM (inactive) | > 100 µM (inactive) | 59 µM (inactive) | 9.95 µM (inactive) | 26.6 µM (inactive) | 32.4 µM (inactive) | > 100 µM (inactive) | 36.5 µM (inactive) | 56.6 µM (inactive) | 22.6 µM (inactive) | 33.6 µM (inactive) | 35.1 µM (inactive) | 23.9 µM (inactive) | 37.2 µM (inactive) | 98.6 µM (inactive) | – | – | –
8 | COc1cccc2nc3c(C(=O)NCCN(C)C)cccc3nc12 | 8.07 µM (inactive) | 0.713 µM (active) | 3.79 µM (inactive) | 25.1 µM (inactive) | 7.35 µM (inactive) | 3.61 µM (inactive) | 8.73 µM (inactive) | 10.8 µM (inactive) | 5.27 µM (inactive) | 10.1 µM (inactive) | 9.2 µM (inactive) | 3.76 µM (inactive) | 3.78 µM (inactive) | 7.96 µM (inactive) | 11.6 µM (inactive) | 8.07 µM (inactive) | 11 µM (inactive) | – | – | –
9 | Cc1cccc(-c2nnc3s/c(=C\c4ccc5c(c4)OCO5)c(=O)n23)c1 | > 100 µM (inactive) | > 100 µM (inactive) | > 100 µM (inactive) | > 100 µM (inactive) | > 100 µM (inactive) | > 100 µM (inactive) | > 100 µM (inactive) | > 100 µM (inactive) | > 100 µM (inactive) | > 100 µM (inactive) | > 100 µM (inactive) | > 100 µM (inactive) | > 100 µM (inactive) | > 100 µM (inactive) | > 100 µM (inactive) | > 100 µM (inactive) | > 100 µM (inactive) | – | – | –
10 | Cc1nc2sccn2c1C(=O)NC(=O)Nc1ccc(Cl)cc1 | 50.5 µM (inactive) | 39.6 µM (inactive) | 46.2 µM (inactive) | – | 57.4 µM (inactive) | > 100 µM (inactive) | > 100 µM (inactive) | > 100 µM (inactive) | 71.9 µM (inactive) | 70.8 µM (inactive) | > 100 µM (inactive) | > 100 µM (inactive) | > 100 µM (inactive) | > 100 µM (inactive) | 37.8 µM (inactive) | > 100 µM (inactive) | 30.9 µM (inactive) | – | – | –
11 | CC[C@@]1(O)C(=O)OCc2c1cc1n(c2=O)Cc2cc3cc(O)ccc3nc2-1 [HYDROXYCAMPTOTHECIN] | 0.0136 µM (active) | – | – | 0.0227 µM (active) | 0.0506 µM (active) | 0.00944 µM (active) | 0.473 µM (active) | – | – | – | 0.0128 µM (active) | – | – | 0.0498 µM (active) | 0.0236 µM (active) | 0.0513 µM (active) | 2.69 µM (inactive) | 0.01 µM (active) | 1.04 µM (active) | –
12 | CC(=O)OCC1OC(OC2C(COC(C)=O)OC(Sc3ccccc3C)C(OC(C)=O)C2OC(C)=O)C(OC(C)=O)C(OC(C)=O)C1OC(C)=O (stereo not drawn) | > 100 µM (inactive) | > 100 µM (inactive) | > 100 µM (inactive) | > 100 µM (inactive) | > 100 µM (inactive) | > 100 µM (inactive) | > 100 µM (inactive) | > 100 µM (inactive) | > 100 µM (inactive) | > 100 µM (inactive) | > 100 µM (inactive) | > 100 µM (inactive) | > 100 µM (inactive) | > 100 µM (inactive) | > 100 µM (inactive) | > 100 µM (inactive) | > 100 µM (inactive) | – | – | –
13 | [N-]=[N+]=C1C(=O)C2CC3CC1CC2C3 (stereo not drawn) | > 100 µM (inactive) | > 100 µM (inactive) | > 100 µM (inactive) | > 100 µM (inactive) | > 100 µM (inactive) | > 100 µM (inactive) | > 100 µM (inactive) | > 100 µM (inactive) | > 100 µM (inactive) | > 100 µM (inactive) | > 100 µM (inactive) | > 100 µM (inactive) | > 100 µM (inactive) | > 100 µM (inactive) | > 100 µM (inactive) | > 100 µM (inactive) | > 100 µM (inactive) | – | – | –
14 | O=C(Cc1nc2ccccc2s1)C(=O)Nc1cccc(Cl)c1 | > 100 µM (inactive) | > 100 µM (inactive) | > 100 µM (inactive) | > 100 µM (inactive) | > 100 µM (inactive) | – | > 100 µM (inactive) | > 100 µM (inactive) | > 100 µM (inactive) | > 100 µM (inactive) | > 100 µM (inactive) | > 100 µM (inactive) | – | > 100 µM (inactive) | > 100 µM (inactive) | > 100 µM (inactive) | > 100 µM (inactive) | – | – | –
15 | CC1(C)N=C(c2ccccn2)C(c2ccccn2)=NC1(C)C | > 100 µM (inactive) | > 100 µM (inactive) | > 100 µM (inactive) | – | > 100 µM (inactive) | > 100 µM (inactive) | > 100 µM (inactive) | > 100 µM (inactive) | > 100 µM (inactive) | > 100 µM (inactive) | > 100 µM (inactive) | > 100 µM (inactive) | > 100 µM (inactive) | > 100 µM (inactive) | > 100 µM (inactive) | > 100 µM (inactive) | – | – | – | –
16 | CN1C(=O)C(C)(C)C2(SC(C)(C)C2(C)C)N(C)C1=S (stereo not drawn) | 67.3 µM (inactive) | > 100 µM (inactive) | > 100 µM (inactive) | 36.1 µM (inactive) | > 100 µM (inactive) | 89.3 µM (inactive) | > 100 µM (inactive) | > 100 µM (inactive) | > 100 µM (inactive) | > 100 µM (inactive) | > 100 µM (inactive) | 53.8 µM (inactive) | > 100 µM (inactive) | > 100 µM (inactive) | > 100 µM (inactive) | > 100 µM (inactive) | – | – | – | –
